Consider 13 compounds from US10011568B2, “Cyclohexyl pyridine derivative” (priority 2014, dated 2018).

The target of data set [1] is human CYP3A4 (Homo sapiens (Human), UniProt P08684). Nature of the data set: Inhibitory effect on CYP3A4. The format is in vitro ADME. As to conditions: 30-minute pre-incubation, Luciferin-IPA substrate; read-out: IC50 (μM), CYP3A4 inhibition. As for the experimental part: Inhibitory Effect on CYP3A4
Enzyme reaction was performed by incubating in a potassium phosphate buffer solution (pH 7.4) containing 1 nM to 20 μM test compound, 3.2 mM magnesium chloride, 0.2 pmol human CYP3A4 (BD Biosciences), 0.5 mM reduced nicotinamide adenine dinucleotide phosphate (NADPH) and 3 μM Luciferin-IPA (Promega) at 37° C. for 10 minutes. The volume of the reaction solution was 50 μL/well. The 30-minute pre-incubation group was incubated at 37° C. for 30 minutes before adding tire substrate, the Luciferin-IPA solution (12.5 μL/well). At the end of the enzyme reaction, 50 μL/well of a Luciferin detection reagent (Promega) was added to the wells, and the plate was left at room temperature for 20 minutes. Then, the emission intensities were measured with Infinite M1000 (TECAN). The enzyme activities (%) relative to the value of the group to which the test compound was not added were calculated.

Data set [2] deals with NK1 receptor (Meriones unguiculatus (Mongolian jird) (Gerbillus unguiculatus), UniProt Q5DUB1). Nature of the data set: Effect on foot-tapping induced by NK1 receptor agonist GR73632. Type of data set: in vivo. The following applies: male gerbil, 0.1 mg/kg iv, GR73632 after four hours. As for the experimental part:
(1) Effect on Foot-Tapping
The test compound solution was prepared by dissolving the test compound in a vehicle (a mixture of 50% N,N-dimethylacetamide (Wako Pure Chemical Industries), 30% propylene glycol (Wako Pure Chemical Industries). 4% 2-hydroxypropyl-β-cyclodextrin (Wako Pure Chemical Industries) and 16% distilled water).
A male gerbil (Japan SLC) was anesthetized with isoflurane, and 0.1 mg/kg of a test compound was administered from the jugular vein. After four hours. GR73632 (5 pmol/5 μl saline), which is an NK1 receptor agonist, was administered into the cerebral ventricle at the part 1 mm lateral to and 4.5 mm below the bregma in the head, under anesthesia with isoflurane. After the administration, the gerbil was moved to an observation cage, and the foot-tapping period during 30 minutes after the recovery of the righting reflex was measured. The foot-tapping inhibition rate (%) of each test compound was calculated by the following equation. Foot-tapping inhibition rate (%)−{1−(Fool-tapping period when test compound was administered)/(Foot-tapping period when solvent was administered)}×100 (2) Measurement of Drug Concentrations
In the table, Ex. No. means the Example number. Inhibition (%) is the loot-tapping inhibition rate, and Cone. (nM) is the drug concentration in the brain.

Data set [3] deals with human NK1 receptor (Homo sapiens (Human), UniProt P25103). Nature of the data set: Inhibitory effect on human NK1 receptor (substance P-induced increase in intracellular calcium concentration). Type of data set: cell-based. The following applies: substance P 1 μM, compound 0.1 μM; read-out: SPRR (%), Substance P-Response Remaining (intracellular calcium concentration). As for the experimental part: Inhibitory Effect on Human NK1 Receptor
(1) Preparation of Human NK1 Receptor-Expressing Cells
Human NK1 receptor-expressing cells were prepared by the same methods as those described in 2-3 of Test Example 1.
(2) Study on Inhibitory Effect on Increase in Intracellular Calcium Concentration
The human NK1 receptor-expressing cells were washed with 300 μL/well of a washing solution (20 mM HEPES/Hank's Balanced Salt Solution (HBSS) pH 7.3). A fluorescent calcium indicator (Fluo-4 Direct Calcium Assay Kit, Life Technologies, containing 0.42 mM probenecid and 0.1% bovine serum albumin, prepared according to the protocol of the product) was added to the wells at 150 μL/well, and the plate was incubated at 37° C. for 30 minutes in an incubator. Then. DMSO solutions of a test compound, which were prepared at an 80-time higher concentration using 100% dimethyl sulfoxide (DMSO), were added to the wells at 2.5 μL/well (final concentrations of 0.1, 1 and 10 μM), and the solutions were mixed. Then, the plate was further incubated at […] for 30 minutes in an incubator. After 30 minutes, the intracellular calcium concentrations were measured immediately.
The intracellular calcium concentrations were each measured as a fluorescent signal using FDSS (registered trademark) 7000 (Hamamatsu Photonics). A substance P (Peptide Institute. Inc.) solution which was prepared at 0.4 μM or 4 μM using an assay buffer (20 mM HEPES/Hank's Balanced Salt Solution (HBSS) pH 7.3, containing 0.1% bovine serum albumin) was added automatically to each well at 50 μL/well (final concentration of 0.1 or 1 μM) 10 seconds after starting reading, and the fluorescent signal was measured up to 120 seconds.
The intracellular calcium concentration (%) of the cells to which a test compound was added was calculated by the equation below, where the fluorescent signal of the group to which the vehicle (DMSO) was added was regarded as 100%, and the fluorescent signal before the addition of substance P was regarded as 0%. Intracellular calcium concentration (%)—(Fluorescent signal of test compound addition group)/(Fluorescent signal of vehicle addition group)×100
The intracellular calcium concentration (%) calculated was regarded as the remaining agonist activity of substance P (Substance P-Response Remaining: SPRR). In the table, Ex. No. means the Example number. SPRR (%) is the value obtained when the concentration of substance P was 1 μM and the concentration of the compound was 0.1 μM.

Sequence of human NK1 receptor (P25103 whole entry): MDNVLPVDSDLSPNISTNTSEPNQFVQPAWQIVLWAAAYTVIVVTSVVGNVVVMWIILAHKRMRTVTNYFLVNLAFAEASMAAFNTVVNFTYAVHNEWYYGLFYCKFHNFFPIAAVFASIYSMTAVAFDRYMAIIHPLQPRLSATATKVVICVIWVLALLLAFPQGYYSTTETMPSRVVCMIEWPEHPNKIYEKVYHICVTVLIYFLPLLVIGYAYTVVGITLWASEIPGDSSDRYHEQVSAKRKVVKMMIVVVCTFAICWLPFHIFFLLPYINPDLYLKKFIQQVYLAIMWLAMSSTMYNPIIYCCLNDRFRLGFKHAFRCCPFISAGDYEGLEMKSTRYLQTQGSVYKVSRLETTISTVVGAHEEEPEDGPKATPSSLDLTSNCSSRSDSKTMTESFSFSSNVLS
Sequence of NK1 receptor (Q5DUB1 whole entry): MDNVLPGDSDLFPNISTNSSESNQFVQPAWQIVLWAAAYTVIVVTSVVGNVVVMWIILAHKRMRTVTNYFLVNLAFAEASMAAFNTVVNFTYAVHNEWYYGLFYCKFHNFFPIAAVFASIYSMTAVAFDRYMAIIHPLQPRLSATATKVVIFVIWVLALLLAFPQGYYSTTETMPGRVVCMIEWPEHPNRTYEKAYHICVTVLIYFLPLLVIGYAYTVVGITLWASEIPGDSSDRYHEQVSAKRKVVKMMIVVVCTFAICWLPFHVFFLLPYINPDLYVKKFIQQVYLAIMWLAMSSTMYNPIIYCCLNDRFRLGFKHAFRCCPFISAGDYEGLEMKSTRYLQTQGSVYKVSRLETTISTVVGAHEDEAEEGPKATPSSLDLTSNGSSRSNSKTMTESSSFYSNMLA
Sequence of human CYP3A4 (P08684 whole entry): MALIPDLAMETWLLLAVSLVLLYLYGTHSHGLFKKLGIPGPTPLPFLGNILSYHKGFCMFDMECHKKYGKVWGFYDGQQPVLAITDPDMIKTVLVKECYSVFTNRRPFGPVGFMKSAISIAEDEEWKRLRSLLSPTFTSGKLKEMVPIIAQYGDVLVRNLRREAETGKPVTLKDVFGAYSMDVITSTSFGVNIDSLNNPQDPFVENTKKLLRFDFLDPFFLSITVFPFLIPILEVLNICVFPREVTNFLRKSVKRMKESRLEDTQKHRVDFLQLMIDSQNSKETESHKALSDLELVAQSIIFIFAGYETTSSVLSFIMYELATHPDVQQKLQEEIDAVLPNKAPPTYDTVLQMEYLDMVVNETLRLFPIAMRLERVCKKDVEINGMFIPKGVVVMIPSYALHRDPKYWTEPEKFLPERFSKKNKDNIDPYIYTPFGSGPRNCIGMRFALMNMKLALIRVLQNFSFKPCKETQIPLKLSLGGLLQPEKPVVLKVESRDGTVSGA

Usually IC50 stands for the point on the concentration scale where inhibition reaches its midpoint. For the compound `Cc1cc(F)ccc1-c1cc(C2CCC(C(=O)O)CC2)ncc1N(C)C(=O)C(C)(C)c1cc(C(F)(F)F)cc(C(F)(F)F)c1` (stereo not drawn) [Example 1, 4-[5-{[2-(3,5-Bistrifluoromethylphenyl)-2-methylpropionyl]methylamino}-4-(4-fluoro-2-methylphenyl)pyridin-2-yl]cyclohexanecarboxylic Acid], the IC50 in data set [1] stood at 13 µM. Moreover, the “Inhibition (%), foot-tapping inhibition rate” value (shortened to “Inhibition (%)”) in data set [2] is 98%. Besides, the remaining activity at 0.1 µM in data set [3] is 20%.
The corresponding values for `Cc1cc(F)ccc1-c1cc(C2CCCC(CC(=O)O)C2)ncc1N(C)C(=O)C(C)(C)c1cc(C(F)(F)F)cc(C(F)(F)F)c1` (stereo not drawn) [Example 3, {3-[5-{[2-(3,5-Bistrifluoromethylphenyl)-2-methylpropionyl]methylamino}-4-(4-fluoro-2-methylphenyl)pyridin-2-yl]cyclohexyl}acetic Acid] are 9.4 µM, 100% and 36%.
The matching figures for `Cc1cc(F)ccc1-c1cc(C2(C)CCCC(CC(=O)O)C2)ncc1N(C)C(=O)C(C)(C)c1cc(C(F)(F)F)cc(C(F)(F)F)c1` (stereo not drawn) [Example 4, {3-[5-{[2-(3,5-Bistrifluoromethylphenyl)-2-methylpropionyl]methylamino}-4-(4-fluoro-2-methylphenyl)pyridin-2-yl]-3-methylcyclohexyl}acetic Acid]: 7.1 µM, 77% and 57%.
In the case of `Cc1cc(F)ccc1-c1cc(C2CCC3(CC2)CC3C(=O)O)ncc1N(C)C(=O)C(C)(C)c1cc(C(F)(F)F)cc(C(F)(F)F)c1` (stereo not drawn) [Example 7, 6-[5-{[2-(3,5-Bistrifluoromethylphenyl)-2-methylpropionyl]methylamino}-4-(4-fluoro-2-methylphenyl)pyridin-2-yl]spiro[2.5]octane-1-carboxylic Acid], the IC50 in data set [1] turned out to be 11 µM. In data set [2], the “Inhibition (%)” value turned out to be 90%. The remaining activity at 0.1 µM in data set [3] stood at 9.4%.
For the compound `Cc1cc(F)ccc1-c1cc(C2CCC(CC(=O)O)CC2)nc(C#N)c1N(C)C(=O)C(C)(C)c1cc(C(F)(F)F)cc(C(F)(F)F)c1` (stereo not drawn) [Example 8, {4-[5-{[2-(3,5-Bistrifluoromethylphenyl)-2-methylpropionyl]methylamino}-6-cyano-4-(4-fluoro-2-methylphenyl)pyridin-2-yl]cyclohexyl}acetic Acid], in data set [1], the IC50 is 6.1 µM. Moreover, the “Inhibition (%)” value in data set [2] was determined as 100%. Further, the remaining activity at 0.1 µM in data set [3] was 31%.
As to `Cc1ccccc1-c1cc(C2CCC(CC(=O)O)CC2)ncc1N(C)C(=O)C(C)(C)c1cc(C(F)(F)F)cc(C(F)(F)F)c1` (stereo not drawn) [Example 9, {4-[5-{[2-(3,5-Bistrifluoromethylphenyl)-2-methylpropionyl]methylamino}-4-ortho-tolylpyridine-yl]-cyclohexyl}acetic Acid], the IC50 in data set [1] came to 6.9 µM. The “Inhibition (%)” value in data set [2] amounted to 75%. Also, the remaining activity at 0.1 µM in data set [3] came to 42%.
On to `Cc1cc(F)ccc1-c1cc(C2CCC(C(C)C(=O)O)CC2)ncc1N(C)C(=O)C(C)(C)c1cc(C(F)(F)F)cc(C(F)(F)F)c1` (stereo not drawn) [Example 10, 2-{4-[5-{[2-(3,5-Bistrifluoromethylphenyl)-2-methylpropionyl]methylamino}-4-(4-fluoro-2-methylphenyl)pyridin-2-yl]cyclohexyl}propionic Acid], for which the IC50 in data set [1] turned out to be 11 µM. The “Inhibition (%)” value in data set [2] is listed as 97%. Besides, the remaining activity at 0.1 µM in data set [3] is 8.6%.
On to `Cc1cc(F)ccc1-c1cc([C@H]2CC[C@H](C(C)(C)C(=O)O)CC2)ncc1N(C)C(=O)C(C)(C)c1cc(C(F)(F)F)cc(C(F)(F)F)c1` [Example 11, trans-2-{4-[5-{[2-(3,5-Bistrifluoromethylphenyl)-2-methylpropionyl]methylamino}-4-(4-fluoro-2-methylphenyl)pyridin-2-yl]cyclohexyl}-2-methylpropionic Acid], for which the IC50 in data set [1] came out at 2.7 µM. In addition, in data set [2], the “Inhibition (%)” value was 95%. For the same compound, the remaining activity at 0.1 µM in data set [3] was found to be 5.4%.
The corresponding values for `Cc1cc(F)ccc1-c1cc([C@H]2CC[C@H](CC(=O)O)CC2)ncc1N(C)C(=O)C(C)(C)c1cc(C(F)(F)F)cc(C(F)(F)F)c1` [Example 13, trans-{4-[5-{[2-(3,5-Bistrifluoromethylphenyl)-2-methylpropionyl]methylamino}-4-(4-fluoro-2-methylphenyl)pyridin-2-yl]cyclohexyl}acetic acid] are 8.2 µM, 100% and 5.1%.
Consider `Cc1cc(F)ccc1-c1cc([C@H]2CC[C@@H](CC(=O)O)CC2)ncc1N(C)C(=O)C(C)(C)c1cc(C(F)(F)F)cc(C(F)(F)F)c1` [Example 14, cis-{4-[5-{[2-(3,5-bistrifluoromethylphenyl)-2-methylpropionyl]methylamino}-4-(4-fluoro-2-methylphenyl)pyridin-2-yl]cyclohexyl}acetic acid], for which the IC50 in data set [1] came to 7.5 µM. Also, the “Inhibition (%)” value in data set [2] worked out at 99%. Besides, the remaining activity at 0.1 µM in data set [3] is 22%.
With `Cc1ccccc1-c1cc(C2CCC(CC(=O)O)CC2)nc(C#N)c1N(C)C(=O)C(C)(C)c1cc(C(F)(F)F)cc(C(F)(F)F)c1` (stereo not drawn) [Example 16, [4-(5-{[2-(3,5-Bistrifluoromethylphenyl)-2-methylpropionyl]methylamino}-6-cyano-4-ortho-tolylpyridin-2-yl)cyclohexyl]acetic Acid], the IC50 in data set [1] was determined as 3.1 µM. For the same compound, in data set [2], the “Inhibition (%)” value is recorded as 93%. In data set [3], the remaining activity at 0.1 µM was 37%.
For `Cc1cc(F)ccc1-c1cc([C@H]2CC[C@H](CC(=O)O)CC2)nc(C#N)c1N(C)C(=O)C(C)(C)c1cc(C(F)(F)F)cc(C(F)(F)F)c1` [Example 20, trans-{4-[5-{[2-(3,5-Bistrifluoromethylphenyl)-2-methylpropionyl]methylamino}-6-cyano--4-(4-fluoro-2-methylphenyl)-pyridin-2-yl]cyclohexyl}acetic acid], the IC50 in data set [1] worked out at 5.5 µM. The “Inhibition (%)” value in data set [2] is on record as 100%. For the same compound, the remaining activity at 0.1 µM in data set [3] came to 2.8%.
Consider `Cc1cc(F)ccc1-c1cc([C@H]2CC[C@@H](CC(=O)O)CC2)nc(C#N)c1N(C)C(=O)C(C)(C)c1cc(C(F)(F)F)cc(C(F)(F)F)c1` [Example 21, cis-{4-[5-{[2-(3,5-bistrifluoromethylphenyl)-2-methylpropionyl]methylamino}-6-cyano-4-(4-fluoro-2-methylphenyl)pyridin-2-yl]cyclohexyl}acetic acid], for which the IC50 in data set [1] was found to be 4.2 µM. For the same compound, in data set [2], the “Inhibition (%)” value was determined as 100%. In data set [3], the remaining activity at 0.1 µM came out at 36%.
